Experimental data taken from ChEMBL document CHEMBL1130620, “New taxanes as highly efficient reversal agents for multidrug resistance in cancer cells” (Bioorg Med Chem Lett, 1998).

Assays:
MDA-MB-435 [1] = assay: Cytotoxicity was evaluated at 0.1 uM concentration in MDA 435/LCC6-MDR cell line when co-administered with Paclitaxel; format: functional, cell-based; conditions: Homo sapiens
MCF7R [2] = assay: Cytotoxicity was evaluated at 3 uM concentration in MCF7-R cell line when co-administered with Paclitaxel; format: functional, cell-based; conditions: Homo sapiens
MDA-MB-435 [3] = assay: Compound was evaluated for multi-drug resistance (MDR) reversal at 0.1 uM concentration in MDA 435/LCC6-MDR cell line when co-administered with Paclitaxel; format: functional, Homo sapiens
MDA-MB-435 [4] = assay: Compound was evaluated for multi-drug resistance (MDR) reversal at 3 uM concentration in MDA 435/LCC6-MDR cell line when co-administered with Paclitaxel; format: functional, Homo sapiens
MDA-MB-435 [5] = assay: Cytotoxicity was evaluated at 3 uM concentration in MDA 435/LCC6-MDR cell line when co-administered with Paclitaxel; format: functional, cell-based; conditions: Homo sapiens
MCF7R [6] = assay: Cytotoxicity was evaluated at 1 uM concentration in MCF7-R cell line when co-administered with Paclitaxel; format: functional, cell-based; conditions: Homo sapiens
MCF7R [7] = assay: Compound was evaluated for multi-drug resistance (MDR) reversal at 1 uM concentration in MCF7-R cell line when co-administered with Paclitaxel; format: functional, Homo sapiens
MDA-MB-435 [8] = assay: Cytotoxicity was evaluated in MDA 435/LCC6-MDR cell line; format: functional, cell-based; conditions: Homo sapiens
MCF7R [9] = assay: Compound was evaluated for multi-drug resistance (MDR) reversal in MCF7-R cell line; format: functional, Homo sapiens
MDA-MB-435 [10] = assay: Compound was evaluated for multi-drug resistance (MDR) reversal in MDA 435/LCC6-MDR cell line; format: functional, Homo sapiens
MCF7R [11] = assay: Cytotoxicity was evaluated in MCF7-R cell line; format: functional, cell-based; conditions: Homo sapiens
MCF7R [12] = assay: Compound was evaluated for multi-drug resistance (MDR) reversal at 3 uM concentration in MCF7-R cell line when co-administered with Paclitaxel; format: functional, Homo sapiens
MDA-MB-435 [13] = assay: Compound was evaluated for multi-drug resistance (MDR) reversal at 1 uM concentration in MDA 435/LCC6-MDR cell line when co-administered with Paclitaxel; format: functional, Homo sapiens
MDA-MB-435 [14] = assay: Cytotoxicity was evaluated at 1 uM concentration in MDA 435/LCC6-MDR cell line when co-administered with Paclitaxel; format: functional, cell-based; conditions: Homo sapiens

Structure (SMILES): CC(=O)O[C@H]1C(=O)[C@]2(C)[C@@H](OC(=O)/C=C/c3ccc(C(=O)c4ccccc4)cc3)C[C@H]3OC[C@@]3(OC(C)=O)[C@H]2[C@H](OC(=O)c2ccccc2)[C@]2(O)C[C@H](OC(C)=O)C(C)=C1C2(C)C
- IC50 (MDA-MB-435 [1]): 52 nM
- IC50 (MCF7R [2]): 2.6 nM
- Reduction (MDA-MB-435 [3]): 94%
- Reduction (MDA-MB-435 [4]): 92%
- IC50 (MDA-MB-435 [5]): 69 nM

Structure (SMILES): CC(=O)O[C@H]1C(=O)[C@]2(C)[C@@H](OC(=O)CNC(=O)c3ccc4ccccc4c3)C[C@H]3OC[C@@]3(OC(C)=O)[C@H]2[C@H](OC(=O)c2ccccc2)[C@]2(O)C[C@H](O)C(C)=C1C2(C)C
- IC50 (MCF7R [6]): 500 nM
- Reduction (MCF7R [7]): 42%

Structure (SMILES): CC(=O)O[C@H]1C(=O)[C@@]2(C)[C@H]([C@H](OC(=O)c3ccccc3)[C@]3(O)C[C@H](OC(=O)[C@H](O)[C@@H](NC(=O)c4ccccc4)c4ccccc4)C(C)=C1C3(C)C)[C@]1(OC(C)=O)CO[C@@H]1C[C@@H]2O [PACLITAXEL]
- IC50 (MDA-MB-435 [8]): 860 nM
- Reduction (MCF7R [9]): 0%
- Reduction (MDA-MB-435 [10]): 0%
- IC50 (MCF7R [11]): 860 nM

Structure (SMILES): CC(=O)O[C@H]1C(=O)[C@]2(C)[C@@H](OC(=O)c3ccc4ccccc4c3)C[C@H]3OC[C@@]3(OC(C)=O)[C@H]2[C@H](OC(=O)c2ccccc2)[C@]2(O)C[C@H](O)C(C)=C1C2(C)C
- IC50 (MCF7R [6]): 21 nM

Structure (SMILES): CC(=O)O[C@@]12CO[C@@H]1C[C@H](OC(=O)OCC(Cl)(Cl)Cl)[C@@]1(C)C(=O)[C@H](OC(=O)OCC(Cl)(Cl)Cl)C3=C(C)[C@@H](OC(=O)CCc4ccc5ccccc5c4)C[C@@](O)([C@@H](OC(=O)c4ccccc4)[C@H]21)C3(C)C
- Reduction (MCF7R [12]): 0%
- IC50 (MCF7R [2]): 860 nM

Structure (SMILES): CC(=O)O[C@@]12CO[C@@H]1C[C@H](O)[C@@]1(C)C(=O)[C@H](OC(=O)/C=C/c3ccc(C(=O)c4ccccc4)cc3)C3=C(C)[C@@H](O)C[C@@](O)([C@@H](OC(=O)c4ccccc4)[C@H]21)C3(C)C
- IC50 (MCF7R [6]): 42 nM
- Reduction (MCF7R [7]): 95%

Structure (SMILES): CC(=O)O[C@H]1C(=O)[C@]2(C)[C@@H](OC(=O)/C=C/c3ccc4ccccc4c3)C[C@H]3OC[C@@]3(OC(C)=O)[C@H]2[C@H](OC(=O)c2ccccc2)[C@]2(O)C[C@H](OC(C)=O)C(C)=C1C2(C)C
- Reduction (MCF7R [12]): 99.3%
- IC50 (MDA-MB-435 [1]): 340 nM
- IC50 (MCF7R [2]): 5.8 nM
- Reduction (MDA-MB-435 [3]): 60%

Structure (SMILES): CC(=O)O[C@@]12CO[C@@H]1C[C@H](O)[C@@]1(C)C(=O)[C@H](O)C3=C(C)[C@@H](OC(=O)/C=C/c4ccc(C(=O)c5ccccc5)cc4)C[C@@](O)([C@@H](OC(=O)c4ccccc4)[C@H]21)C3(C)C
- IC50 (MCF7R [6]): 860 nM
- Reduction (MCF7R [7]): 0%

Structure (SMILES): CC(=O)O[C@H]1C(=O)[C@]2(C)[C@@H](OC(C)=O)C[C@H]3OC[C@@]3(OC(C)=O)[C@H]2[C@H](OC(=O)CCc2ccc3ccccc3c2)[C@]2(O)C[C@H](OC(C)=O)C(C)=C1C2(C)C
- IC50 (MDA-MB-435 [1]): 650 nM
- Reduction (MDA-MB-435 [3]): 24%

Structure (SMILES): CC(=O)O[C@@]12CO[C@@H]1C[C@H](OC(=O)/C=C/c1ccc3ccccc3c1)[C@@]1(C)C(=O)[C@H](OC(=O)/C=C/c3ccc4ccccc4c3)C3=C(C)[C@@H](O)C[C@@](O)([C@@H](OC(=O)c4ccccc4)[C@H]21)C3(C)C
- IC50 (MCF7R [6]): 470 nM
- Reduction (MCF7R [7]): 45%

Structure (SMILES): CC(=O)O[C@H]1C(=O)[C@]2(C)[C@@H](OC(=O)CCC3CCC4CCCCC4C3)C[C@H]3OC[C@@]3(OC(C)=O)[C@H]2[C@H](OC(=O)C2CCCCC2)[C@]2(O)C[C@H](O)C(C)=C1C2(C)C (stereo partly specified)
- IC50 (MCF7R [6]): 160 nM
- Reduction (MCF7R [7]): 81%

Structure (SMILES): CC(=O)O[C@@]12CO[C@@H]1C[C@H](OC(=O)CCc1ccc(C(=O)c3ccccc3)cc1)[C@@]1(C)C(=O)[C@H](OC(=O)CCc3ccc(C(=O)c4ccccc4)cc3)C3=C(C)[C@@H](OC(=O)CCc4ccc(C(=O)c5ccccc5)cc4)C[C@@](O)([C@@H](OC(=O)c4ccccc4)[C@H]21)C3(C)C
- IC50 (MDA-MB-435 [1]): 860 nM
- Reduction (MDA-MB-435 [3]): 0%

Structure (SMILES): CC(=O)O[C@@]12CO[C@@H]1C[C@H](OC(=O)/C=C/c1ccc3ccccc3c1)[C@@]1(C)C(=O)[C@H](OC(=O)CCc3ccc(C(=O)c4ccccc4)cc3)C3=C(C)[C@@H](O)C[C@@](O)([C@@H](OC(=O)c4ccccc4)[C@H]21)C3(C)C
- IC50 (MCF7R [6]): 860 nM
- Reduction (MCF7R [7]): 0%

Structure (SMILES): CC(=O)O[C@@]12CO[C@@H]1C[C@H](OC(=O)OCC(Cl)(Cl)Cl)[C@@]1(C)C(=O)[C@H](OC(=O)OCC(Cl)(Cl)Cl)C3=C(C)[C@@H](OC(=O)/C=C/c4ccc5ccccc5c4)C[C@@](O)([C@@H](OC(=O)c4ccccc4)[C@H]21)C3(C)C
- Reduction (MCF7R [12]): 12%
- IC50 (MCF7R [2]): 750 nM

Structure (SMILES): CC(=O)O[C@H]1C(=O)[C@]2(C)[C@@H](OC(=O)/C=C/c3ccc(C(=O)c4ccccc4)cc3)C[C@H]3OC[C@@]3(OC(C)=O)[C@H]2[C@H](OC(=O)c2ccccc2)[C@]2(O)C[C@H](O)C(C)=C1C2(C)C
- IC50 (MCF7R [2]): 1.6 nM

Structure (SMILES): CC(=O)O[C@@]12CO[C@@H]1C[C@H](OC(=O)OCC(Cl)(Cl)Cl)[C@@]1(C)C(=O)[C@H](OC(=O)OCC(Cl)(Cl)Cl)C3=C(C)[C@@H](OC(=O)/C=C/c4ccc(C(=O)c5ccccc5)cc4)C[C@@](O)([C@@H](OC(=O)c4ccccc4)[C@H]21)C3(C)C
- Reduction (MCF7R [12]): 80%
- IC50 (MCF7R [2]): 170 nM

Structure (SMILES): CC(=O)O[C@H]1C(=O)[C@]2(C)[C@@H](OC(=O)/C=C/c3ccc4ccccc4c3)C[C@H]3OC[C@@]3(OC(C)=O)[C@H]2[C@H](OC(=O)c2ccccc2)[C@]2(O)C[C@H](O)C(C)=C1C2(C)C
- IC50 (MCF7R [6]): 36 nM
- Reduction (MDA-MB-435 [13]): 50%
- Reduction (MCF7R [7]): 96%
- IC50 (MDA-MB-435 [14]): 430 nM

Structure (SMILES): CC(=O)O[C@@]12CO[C@@H]1C[C@H](O)[C@@]1(C)C(=O)[C@H](O)C3=C(C)[C@@H](OC(=O)CCc4ccc5ccccc5c4)C[C@@](O)([C@@H](OC(=O)c4ccccc4)[C@H]21)C3(C)C
- IC50 (MCF7R [6]): 540 nM
- Reduction (MCF7R [7]): 37%

Structure (SMILES): CC(=O)O[C@@]12CO[C@@H]1C[C@H](O)[C@@]1(C)C(=O)[C@H](O)C3=C(C)[C@@H](OC(=O)/C=C/c4ccc5ccccc5c4)C[C@@](O)([C@@H](OC(=O)c4ccccc4)[C@H]21)C3(C)C
- IC50 (MCF7R [6]): 100 nM
- Reduction (MCF7R [7]): 88%

Structure (SMILES): CC(=O)O[C@@]12CO[C@@H]1C[C@H](OC(=O)CCc1ccc(C(=O)c3ccccc3)cc1)[C@@]1(C)C(=O)[C@H](OC(=O)CCc3ccc(C(=O)c4ccccc4)cc3)C3=C(C)[C@@H](O)C[C@@](O)([C@@H](OC(=O)c4ccccc4)[C@H]21)C3(C)C
- IC50 (MCF7R [6]): 2.6 nM
- Reduction (MCF7R [7]): 99.7%

Structure (SMILES): CC(=O)O[C@H]1C(=O)[C@]2(C)[C@@H](OC(C)=O)C[C@H]3OC[C@@]3(OC(C)=O)[C@H]2[C@H](OC(=O)/C=C/c2ccc(C(=O)c3ccccc3)cc2)[C@]2(O)C[C@H](OC(C)=O)C(C)=C1C2(C)C
- IC50 (MDA-MB-435 [1]): 630 nM
- Reduction (MDA-MB-435 [3]): 27%

Structure (SMILES): CC(=O)O[C@H]1C(=O)[C@]2(C)[C@@H](OC(=O)CCc3ccc4ccccc4c3)C[C@H]3OC[C@@]3(OC(C)=O)[C@H]2[C@H](OC(=O)c2ccccc2)[C@]2(O)C[C@H](O)C(C)=C1C2(C)C
- IC50 (MCF7R [6]): 33 nM
- Reduction (MCF7R [7]): 96%
